Measured values as given in patent US20260132384A1, “METHOD FOR REPROGRAMMING HUMAN SOMATIC CELLS INTO INDUCED PLURIPOTENT STEM CELLS” (EXONEUGLIA BIOTECHNOLOGY (SUZHOU) CO., LTD., priority 2023, published 2026).

Tested on: peripheral blood mononuclear cells (PBMCs)
Assay: Reprogramming of human peripheral blood cells into induced pluripotent stem cells; clones counted by alkaline phosphatase staining
Format: cell-based
Details: day 14, clones per 5.0×10^5 reprogrammed PBMCs, OCT4, SOX2, LIN28 episomal plasmids, inducers added to induction medium
Method: The inducing factors were introduced via electroporation of episomal plasmids in Treatment Groups 1 to 6. The groups differed only in the chemical inducer small molecules added to the pluripotent stem cell induction medium. The specific steps were as follows:
(2) Expansion of Peripheral Blood Cells: Freshly isolated peripheral blood cells (peripheral blood cells obtained with ethical approval were purchased from Shanghai HYCELLs Company) were seeded into a 6-well plate at a density of 5×10^6 cells/mL and cultured statically for 7 days at 37° C. in an incubator. The peripheral blood cell expansion medium used was StemPro™-34 medium supplemented with SCF 100 ng/ml, FLT-3 100 ng/ml, IL-3 20 ng/ml, IL-6 20 ng/ml, and TPO 100 ng/mL.
(3) Electroporation: Prior to electroporation, 500 μL of diluted basement membrane matrix (Matrigel) was added to a […] and placed in a CO2 incubator for coating. The expanded cells were collected and washed. After counting, the peripheral blood mononuclear cells (PBMCs) were placed in a 1.5 mL centrifuge tube at a density of 2×10^6 cells/mL. The tube was loaded into a centrifuge and centrifuged at 200 g for 5 minutes. After centrifugation, the supernatant was aspirated with a pipette and set aside for later use.
According to the Thermo Neon electroporation instrument protocols, buffer was added. The cell pellet was mixed with 5 μg of pCEP4-OCT4-IRES-SOX2 plasmid and 2 μg of pCEP4-Lin28 plasmid, and the mixture was loaded into the electroporation instrument for electroporation. Peripheral blood expansion medium was immediately added thereafter, and the cells were seeded in the coated 6-well plate at a density of 5×10^5 cells/mL and cultured statically for 48 h at 37° C. in a CO2 incubator.
(4) Induction: At 48 h post-electroporation, 1 mL of pluripotent stem cell induction medium was directly added to the original wells, and the culture was continued statically for 48 h at 37° C. in a CO2 incubator; On day 4 post-electroporation, half of the old medium in the original wells was aspirated and discarded, 1 mL of fresh pluripotent stem cell induction medium was then added, and the culture was continued statically for 48 h at 37° C. in a CO2 incubator; On day 6 post-electroporation, all the old medium in the original wells was aspirated and discarded, 1 mL of fresh pluripotent stem cell induction medium was added, and the culture was continued statically for 48 h at 37° C. in a CO2 incubator; On day 8 post-electroporation, all the old medium in the original wells was aspirated and discarded, 1 mL of fresh pluripotent stem cell induction medium was added, and the culture was continued statically for 48 h at 37° C. in a CO2 incubator; On day 10 post-electroporation, all the old medium in the original wells was aspirated and discarded, 1 mL of fresh mTeSR1 medium was added, and the culture was continued statically at 37° C. in a CO2 incubator; The mTeSR1 medium was changed daily until the induced pluripotent stem cells were fully mature, approximately on day 14 or 15 post-electroporation. Clones were then picked for expansion.
The pluripotent stem cell induction medium for Treatment Group 1 was mTeSR1 medium supplemented with 3 μM chir99021, 100 ng/ml FGF2, 250 μM NaB, 2 μM SB203580, 1 μM peficitinib, 1 μM FPFT-2216, 0.1 μM VTP50469, 2% (v/v) B27, and 1% (v/v)N-2.
The pluripotent stem cell induction medium for Treatment Group 2 was mTeSR1 medium supplemented with 3 μM chir99021, 100 ng/ml FGF2, 250 μM NaB. 1 μM peficitinib, 2% (v/v) B27, and 1% (v/v)N-2.
The pluripotent stem cell induction medium for Treatment Group 3 was mTeSR1 medium supplemented with 3 μM chir99021, 100 ng/ml FGF2, 250 μM NaB, 2 μM Tofacitinib, 2% (v/v) B27, and 1% (v/v)N-2.
The pluripotent stem cell induction medium for Treatment Group 4 was mTeSR1 medium supplemented with 3 μM chir99021, 100 ng/ml FGF2, 250 μM NaB, 2 μM SB203580, 2% (v/v) B27, and 1% (v/v)N-2. […]

SMILES | Average Number of Pluripotent Stem Cell Clone/Well, Experiment 1 | Average Number of Pluripotent Stem Cell Clone/Well, Experiment 2 | Average Number of Pluripotent Stem Cell Clone/Well, Experiment 3
C[C@@H]1CCN(C(=O)CC#N)C[C@@H]1N(C)c1ncnc2[nH]ccc12 [Tofacitinib] | 20 Clone/Well | 16 Clone/Well | 22 Clone/Well
C[S+]([O-])c1ccc(-c2nc(-c3ccncc3)c(-c3ccc(F)cc3)[nH]2)cc1 (stereo not drawn) [SB203580] | 51 Clone/Well | 56 Clone/Well | 48 Clone/Well
NC(=O)c1cnc2[nH]ccc2c1N[C@@H]1[C@@H]2CC3C[C@H]1C[C@@](O)(C3)C2 [Peficitinib] | 43 Clone/Well | 52 Clone/Well | 47 Clone/Well
